Assay [1] has as its system C. neoformans. Conditions: in vitro, maximal inhibition.
The test system of assay [2] is A549 (lung cancer) cell line. As to the kind of experiment: Cell viability, WST-1 assay, A549 cells. It counts as cell-based. The note with it: 48 and 72 hours, WST-1, FIGS. 1 and 2.
In assay [3] the test system is imiquimod-induced dermatitis. As to the kind of experiment: Imiquimod-induced psoriasiform dermatitis in mice, topical ointment. It counts as in vivo.
The subject of assay [4] is PC3 (prostate cancer) cell line. Description: Cell viability, WST-1 assay, PC3 cells. It counts as cell-based. Conditions: 48 and 72 hours, WST-1, FIGS. 3 and 4.

For the molecule `CCN(CC)CCCC(C)Nc1ccnc2cc(Cl)ccc12` (stereo not drawn) [Chloroquine], the “inhibition of C. neoformans growth (ceiling)” value in assay [1] is “about 40%”.
`c1ccc(Oc2cccc(Cc3nc4cnc5ccccc5c4[nH]3)c2)cc1` [Compound GE, 2-(3-Phenoxybenzyl)-1H-imidazo[4,5-c]quinoline]: the “doses reducing cancer cell viability, relative to those required for similar reductions by compound AF” value in assay [2] and in assay [4] was “approximately 1/10” each time. Also, the “ear thickness (caliper measurements)” value in assay [3] (female Balb/C mice, 0.01% ointment topically on ears, started day 5 of imiquimod, FIG. 5) is on record as “reduced imiquimod-induced inflammatory damage to mouse ears”. The “PASI scoring (erythema, thickening, scaling, cumulative)” value in assay [3] (female Balb/C mice, 0.01% ointment topically on ears, started day 5 of imiquimod, FIGS. 6A-D) was “reducing all three aspects of dermal inflammation captured by the PASI scoring system”. Besides, in assay [3] (ointment concentration of 0.01%), the “efficacy in model of psoriasiform dermatitis” value is listed as “effective”.
